From patent US5807846A, “Phosphonamide ACAT inhibitors” (Warner-Lambert Company, priority 1997, dated 1998) come the findings set out here.

Molecules are shown by their SMILES. Like-named read-outs stand apart in the source and are kept apart here. Bounds are passed on as bounds.

One experiment concerns cholesterol. The experiment is described as follows: APCC in vivo screen: rats on high fat, high cholesterol diet (PCC), blood cholesterol analysis. On the set-up: species or system male Sprague-Dawley rats. The source says: In one in vivo screen designated APCC, male Sprague-Dawley rats (200 to 225 g) were randomly divided into treatment groups and dosed at 4 PM with either vehicle (CMC/Tween) or suspensions of compounds in vehicle. The normal chow diet was then replaced with a high fat, high cholesterol diet (designated PCC) containing 0.5% cholic acid. The rats consumed this diet ad libitum during the night and were sacrificed at 8 AM to obtain blood samples for cholesterol analysis using standard procedures. Statistical differences between mean cholesterol values for the same vehicle were determined using analysis of variance followed by Fisher's least significant test.

Experiment [1] concerns the target acyl-CoA:cholesterol acyltransferase (ACAT). Briefly: in vitro ACAT inhibition (LAI): radiolabeled cholesterol oleate formed from radiolabeled oleic acid in rat liver microsomes. The format is biochemical. Conditions: read-out: LAI (IC50, concentration of test compound required to inhibit the activity of the enzyme by 50%). The source says: The test assesses the ability of a test compound to inhibit the acylation of cholesterol by oleic acid by measuring the amount of radiolabeled cholesterol oleate formed from radiolabeled oleic acid in a tissue preparation containing rat liver microsomes.

`COP(=O)(NC(=O)Cc1c(C(C)C)cc(C(C)C)cc1C(C)C)Oc1c(C(C)C)cc(Cl)cc1C(C)C` (stereo not drawn) [Cl iPr OCH3 O, Phosphoramidic acid, [[2,4,6-tris(1-methylethyl)phenyl]acetyl]-, 4-chloro-2,6-bis(1-methylethyl)phenyl methyl ester] displayed an APCC with cholesterol (rat, in vivo, 10 mg/kg) of -12. The IC50 in experiment [1] was above 5000 nM. As for `COP(=O)(Cc1c(C(C)C)cccc1C(C)C)NC(=O)Cc1c(C(C)C)cc(C(C)C)cc1C(C)C` (stereo not drawn) [H iPr OCH3 CH2, Phosphonamidic acid, P-[[2,6-bis(1-methylethyl)phenyl]methyl]-N-[[2,4,6-tris(1-methylethyl)phenyl]acetyl]-, methyl ester], the IC50 in experiment [1] came to 1200 nM. For the compound `CC(C)c1cc(C(C)C)c(CC(=O)NP(=O)(Oc2c(C(C)C)cccc2C(C)C)c2ccccc2)c(C(C)C)c1` (stereo not drawn) [H iPr Ph O, Phosphonamidic acid, P-phenyl-N-[[2,4,6-tris(1-methylethyl)phenyl]acetyl]-,2,6-bis(1-methylethyl)phenyl ester], in the experiment on cholesterol (rat, in vivo, 10 mg/kg), the APCC is -25. The IC50 in experiment [1] was found to be 2500 nM.

In turn, `CC(C)c1cc(C(C)C)c(CP(N)(=O)OCc2ccccc2)c(C(C)C)c1` (stereo not drawn) [Monobenzyl, 2,4,6-triisopropylbenzylphosphonamide] returned an APCC in the experiment with cholesterol (dose 10 mg/kg, rats, single dose at 4 PM, PCC diet overnight, blood cholesterol at 8 AM) of -4. The IC50 in experiment [1] (rat liver microsomes) is 3600 nM. In the experiment on cholesterol (rat, in vivo, 3 mg/kg), `COP(=O)(Cc1c(C(C)C)cc(C(C)C)cc1C(C)C)NC(=O)Cc1c(C(C)C)cccc1C(C)C` (stereo not drawn) [iPr H OCH3 CH2, Phosphonamidic acid, N-[[2,6-bis(1-methyl-ethyl)phenyl)acetyl]-P-[[2,4,6-tris(1-methyl-ethyl)phenyl)methyl]-, methyl ester] came in with an APCC of -44. Further, the IC50 in experiment [1] came to 290 nM. `COP(=O)(NC(=O)Cc1c(C(C)C)cc(C(C)C)cc1C(C)C)Oc1c(C(C)C)cccc1C(C)C` (stereo not drawn) [iPr H OCH3 O, [(2,4,6-Triisopropyl-phenyl)-acetyl]-phosphoramidic acid 2,6-diisopropyl-phenyl ester methyl ester]: the APCC in the experiment on cholesterol (rat, in vivo, 1 mg/kg) is reported as -18. The IC50 in experiment [1] was determined as 4800 nM. On to `COP(=O)(Cc1c(C(C)C)cc(C(C)C)cc1C(C)C)NC(=O)Cc1c(C(C)C)cc(C(C)C)cc1C(C)C` (stereo not drawn) [iPr iPr OCH3 CH2, Phosphonamidic acid, N-[[2,4,6-tris(1-methylethyl)phenyl]acetyl]-P-[[2,4,6-tris(1-methylethyl)phenyl]methyl]-, methyl ester], for which the IC50 in experiment [1] is 740 nM.
